Among the test systems are 786-0 renal; ACHN renal; EKVX NSCLC; HL-60(TB) leukemia; HOP-62 NSCLC; MCF7 breast; OVCAR-4 ovarian; OVCAR-5 ovarian; PC-3 prostate; SK-OV-3 ovarian; UO-31 renal.
Assay in all cases: NCI-60 cell line screen, 48 h

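48-hour exposure; five concentrations; linearly interpolated endpoints. The concentration for full growth arrest is given as TGI.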

Turning to `O=C(O)COc1cccc2ccccc(=O)c12`, the TGI in the test on 786-0 renal, in the test with ACHN renal, with EKVX NSCLC, with HL-60(TB) leukemia, with HOP-62 NSCLC and in the test with MCF7 breast was above 100 µM in each case. The TGI in the test on OVCAR-4 ovarian, in the test with OVCAR-5 ovarian, with PC-3 prostate, in the test on SK-OV-3 ovarian and in the test with UO-31 renal was above 100 µM each time.
In the case of `O=C1C=C(NCCc2ccc(O)cc2)C(=O)C=C1NCCc1ccc(O)cc1`, the TGI in the test on 786-0 renal is above 100 µM; in the test with ACHN renal, above 100 µM; with EKVX NSCLC it was above 100 µM; in the test on HL-60(TB) leukemia, 71.2 µM; in the test on HOP-62 NSCLC it was above 100 µM; with MCF7 breast, above 100 µM. Besides, the TGI in the test with OVCAR-4 ovarian, in the test with OVCAR-5 ovarian, in the test on PC-3 prostate, with SK-OV-3 ovarian and with UO-31 renal was above 100 µM in each case.
In the case of `CN(C)C=Nc1cccc2c1NSN2`, the TGI in the test with 786-0 renal, with ACHN renal, in the test on EKVX NSCLC, in the test on HL-60(TB) leukemia, in the test on HOP-62 NSCLC and in the test with MCF7 breast was above 100 µM each time. Also, the TGI in the test on OVCAR-4 ovarian, in the test with OVCAR-5 ovarian, in the test on PC-3 prostate, in the test with SK-OV-3 ovarian and with UO-31 renal was above 100 µM throughout.
As to `CC(=O)Oc1ccc(C2SCc3nc4ccccc4n32)cc1` (configuration not stated), the TGI with 786-0 renal was above 100 µM; in the test on ACHN renal, above 100 µM; in the test with EKVX NSCLC, above 100 µM; in the test on HL-60(TB) leukemia it was 37.8 µM; in the test with HOP-62 NSCLC, above 100 µM; in the test on MCF7 breast it was above 100 µM. Further, the TGI in the test with OVCAR-4 ovarian was above 100 µM; with OVCAR-5 ovarian it was above 100 µM; in the test with PC-3 prostate, above 100 µM; in the test with SK-OV-3 ovarian it was 95.3 µM; in the test with UO-31 renal, above 61.5 µM.
For the molecule `NC(=O)NC(=O)c1cccc(C(=O)NC(N)=O)n1`, the TGI in the test with 786-0 renal, with ACHN renal, with EKVX NSCLC, with HL-60(TB) leukemia, in the test on HOP-62 NSCLC and with MCF7 breast was above 100 µM in each case. Further, the TGI with OVCAR-4 ovarian, in the test with OVCAR-5 ovarian, in the test with PC-3 prostate, in the test with SK-OV-3 ovarian and in the test on UO-31 renal was above 100 µM throughout.
Regarding `C=CCOC1=C(OC(C)=O)C(C2COC(C)(C)O2)OC1=O` (configuration not stated), the TGI in the test on 786-0 renal is 37.4 µM; in the test on ACHN renal, 32.5 µM; with EKVX NSCLC, 39.9 µM; with HL-60(TB) leukemia, 40.3 µM; with HOP-62 NSCLC it was above 100 µM; in the test with MCF7 breast, 32.8 µM. The TGI with OVCAR-4 ovarian is 45.9 µM; in the test with OVCAR-5 ovarian, 32.4 µM; in the test on PC-3 prostate it was above 100 µM; in the test on SK-OV-3 ovarian, above 100 µM; in the test with UO-31 renal it was 33 µM.
In the case of `COC(=O)CC(c1ccccc1)C(C#N)(OP1(=O)OC(c2ccccc2)C(C)N1C)c1ccccc1` (configuration not stated), the TGI is above 100 µM with 786-0 renal; above 100 µM in the test on ACHN renal; above 100 µM in the test with EKVX NSCLC; 72.6 µM with HL-60(TB) leukemia; above 100 µM in the test on HOP-62 NSCLC; above 100 µM with MCF7 breast. The TGI with OVCAR-4 ovarian, with OVCAR-5 ovarian, with PC-3 prostate, in the test on SK-OV-3 ovarian and in the test on UO-31 renal was above 100 µM in each case.
Regarding `O=[N+]([O-])C(=C(\Cl)NCCO)/C(Cl)=C(/Cl)Br`, the TGI with 786-0 renal turned out to be 2.75 µM; with ACHN renal, 8.9 µM; in the test on EKVX NSCLC, 10.4 µM; with HL-60(TB) leukemia, 2.48 µM; in the test with HOP-62 NSCLC, 29 µM; in the test on MCF7 breast, 2.59 µM. In addition, the TGI in the test with OVCAR-4 ovarian came out at 3.01 µM; in the test with OVCAR-5 ovarian, 13.4 µM; in the test with PC-3 prostate, 7.68 µM; in the test on SK-OV-3 ovarian, 28.5 µM; with UO-31 renal, 10.6 µM.
For the molecule `CC1(C)CC(=O)C(/C=N/c2nc(-c3cccc([N+](=O)[O-])c3)cs2)=C(O)C1`, the TGI in the test with 786-0 renal was 29.9 µM; in the test on ACHN renal, 33.8 µM; in the test on EKVX NSCLC, 46.6 µM; in the test on HL-60(TB) leukemia, above 100 µM; with HOP-62 NSCLC it was 57.9 µM; in the test on MCF7 breast, 34 µM. The TGI in the test on OVCAR-4 ovarian was above 100 µM; in the test on OVCAR-5 ovarian it was above 100 µM; in the test on PC-3 prostate it was above 100 µM; in the test on SK-OV-3 ovarian it was above 100 µM; in the test with UO-31 renal it was 74.9 µM.
As for `FC1(F)SC2CCCCCCCCCCC2C1(F)F` (configuration not stated), the TGI in the test with 786-0 renal is above 100 µM; with ACHN renal, 73.8 µM; with EKVX NSCLC, above 100 µM; with HL-60(TB) leukemia it was 30.3 µM; with HOP-62 NSCLC it was above 100 µM; in the test with MCF7 breast, 44.2 µM. Also, the TGI in the test with OVCAR-4 ovarian, with OVCAR-5 ovarian, in the test on PC-3 prostate, in the test on SK-OV-3 ovarian and with UO-31 renal was above 100 µM throughout.
Regarding `Cc1cccc(C)c1NC(=O)/C(CC(=O)CC(c1ccccc1)c1c(O)c2ccccc2oc1=O)=N/O` (configuration not stated), the TGI in the test on 786-0 renal, with ACHN renal, with EKVX NSCLC, with HL-60(TB) leukemia, in the test with HOP-62 NSCLC and in the test on MCF7 breast was above 100 µM each time. The TGI in the test with OVCAR-4 ovarian, in the test with OVCAR-5 ovarian, with PC-3 prostate, with SK-OV-3 ovarian and in the test on UO-31 renal was above 100 µM each time.
`CC1=NN(c2cccc(S(=O)(=O)O)c2)C2(C1)SCC(=O)N2c1nc2ccccc2s1` (configuration not stated): the TGI in the test on 786-0 renal, in the test with ACHN renal, in the test with EKVX NSCLC, in the test on HL-60(TB) leukemia, with HOP-62 NSCLC and with MCF7 breast was above 100 µM in each case. The TGI in the test on OVCAR-4 ovarian, in the test on OVCAR-5 ovarian, in the test on PC-3 prostate, in the test on SK-OV-3 ovarian and in the test with UO-31 renal was above 100 µM throughout.
